Patent US20250066420A1, “PD-L1 INHIBITORY PEPTIDE FOR CANCER IMMUNOTHERAPY” (Kansas State University Research Foundation, priority 2021, published 2025)
“Also recorded” adds a separate entry of the source.

B1: PD-L1ip3SC (scrambled analogue of PD-L1ip3) (peptide)
peptide: VLIKIPWLRLPGCGTQ
notes: Negative control in BLI; also called scrambled peptide

How the values were obtained:
[1] = test system: H1299 human non-small cell lung carcinoma cell line; assay: Co-culture of H1299 cell antigen-specific T cells with H1299 lung cancer cells, cell death by flow cytometry; format: cell-based; conditions: for cell death in H1299 cells: antigen-specific T cell co-culture, 48 hours
Excerpt: (§1) • H1299 human non-small cell lung carcinoma cell line (ATCC) • Jurkat cells (Human T lymphoblasts, ATCC) • Primary cultured murine CD8^+ T cell primed with H1299 cell lysate (H1299 cell antigens)
Mice were immunized with H1299 cells via tail vein injection. T cells were extracted from spleen, purified, and expanded by co-culturing with dendritic cells (DCs) stimulated with H1299 cell lysate. Expanded T cells were used in co-culture assay.

[2] = test system: H1299 human non-small cell lung carcinoma cell line; assay: Co-culture of activated Jurkat cells with H1299 lung cancer cells, cell death by flow cytometry; format: cell-based; conditions: for cell death in H1299 cells: Jurkat co-culture, 48 hours; for increase in cell death in H1299 cells: co-cultured with nonspecifically activated Jurkat cells, preliminary data
Procedure: as §1
Co-culture assay procedure. Dead cell populations were measured by flow cytometry at 48 hours post-co-culture using propidium iodide (PI) staining.

[3] = test system: CT26 murine colon carcinoma cells; assay: T cell-induced death of CT26 cells in co-culture with antigen-primed CD8+ T cells (flow cytometry); format: cell-based, mouse; conditions: peptide 10 μM, CT26:T cell 1:16
Procedure: a. Generation of CT26 cell antigen-specific CD8^+ T cells in vivo: First, the mice were subcutaneously (SQ) injected with CT26 cell lysate (0.5×10^6 cells/mouse in 200 μl PBS) at Day 0. JAWSII immature dendritic cells and CT26 cells previously irradiated with an X-ray dose of 100 Gy were cocultured at a 1:1 ratio for 48 h with an additional treatment of LPS (1 μg/ml). The cells (0.5×10^6 cells/mouse in 200 μl PBS) were collected and administered IV via tail vein to the mice at Day 7. At Day 21, the splenocytes were harvested and the CT26 antigen-specific CD8^+ T cells were labeled using MojoSort™ Mouse CD8 T Cell Isolation Kit (Biolegend, San Diego, CA) and isolated using magnetic beads-based separation protocol with MACS® Column (Miltenyi Biotec, Bergisch Gladbach, Germany) according to the manufacturer's instructions.
b. Evaluation of T cell-induced death of colon carcinoma cells in co-culture: Permanently GFP-expressing CT26 cells (GFP-CT26) produced by GFP-lentivirus vector transduction were seeded into 12 well-plate (1×10^4 cells/well) in the presence of murine interferon gamma (mIFNγ) at 25 ng/ml for 24 h. […] The effect of PD-L1ip3 in peptide form or gene transduction by Ad-PD-L1ip3 on CT26 cell death was analyzed by flow cytometry using LIVE/DEAD™ Fixable Violet Dead Cell Stain Kit (Invitrogen Corp). […]

CT26 cell tumors = assay: CT26 subcutaneous allograft tumor growth in Balb/c mice; format: in vivo, mouse
Procedure: The anti-tumor effect of Ad-PD-L1ip3 and PD-L1ip3 in peptide form was evaluated in Balb/c mice using a CT26 murine colon carcinoma allograft model. The CT26 cells were transduced with 100 MOI of Ad-PD-L1ip3 or Ad-PD-L1ip3SC. At 24 h after transduction, the cells were suspended into 0.6% agarose dissolved in RPMI 1640. After filling agarose-cell mixture into 1 ml syringe equipped with 27G needle, it was solidified on ice. Mice were anesthetized with isoflurane and injected subcutaneously into the back with a 5×10^5 CT26 cells in 50 μl cell-agarose mixture. The intraperitoneal administration of PD-L1ip3 peptide (10 mg/kg) was carried out at 1 week after CT26 inoculation for 13 days (every day, totaling 13 injections). The PBS control was injected intraperitoneally with the same schedule. For the pre-immunization study, CT26 lysate (1×10^6 cells/100 μl PBS) were injected subcutaneously, 3 times with 1-week interval. The CT26 lysate was made by 3 times freeze-thaw cycles using liquid nitrogen. The mouse body weights were monitored at 2-day intervals. All mice were sacrificed […] after CT26 inoculation by cervical dislocation after exposure to saturated C02. The tumor size was measured by caliper every 2 days and the volume was calculated using the formula 0.5×(short diameter)^2×(long diameter). The tumors were weighed and fixed in 10% formalin for histological analysis.

[4] = test system: murine LLC lung carcinoma cells; assay: Cytotoxicity of antigen-primed CD8+ T cells toward LLC cells in co-culture; format: cell-based, mouse; conditions: 10 μM, 1:16 ratio, 18 and 36 hrs; positive control anti-PD-L1 antibody
Procedure: Generation of LLC cell antigen primed CD8^+ T cells in vivo: Mice were subcutaneously injected with LLC lysate (0.5×10^6 cells/mouse in 100 μl) at Day 0. X-ray (100 Gy) irradiated LLC cells were cocultured with JAWSII immature dendritic cells (JAWS-irrLLC) at a 1:1 ratio for 48 hrs in the presence of LPS (1 μg/ml). The cells were then intravenously injected into mice via tail vein (0.5×10^4 cells/mouse in 200 μl) at Day 7. At Day 21, the splenocytes were harvested and CD8^+ T cells (AP-CD8^+ T cells) were isolated using commercially available isolation kit.
Evaluation of T cell-induced death of lung carcinoma cells in co-culture: Permanently GFP-expressing LLC cells (1×10^4 cells) were treated with murine IFNγ (25 ng/ml) for 48 hrs. The cells were treated with 10 μM PD-L1ip3. PD-L1ip3SC (10 μM) and mouse anti-PD-L1 antibody (αPD-L1: 0.5 or 1.0 μg/ml) were used as control. The cells were then cocultured with antigen primed CD8^+ T cells 1:16 ratio. The cytotoxicity of AP-CD8^+ T cells toward LLC cells at 18 and 36 hrs after coculture was determined by flow cytometry.

human PD-L1 = molecular target: T1, human PD-L1 (Homo sapiens, UniProt Q9NZQ7); assay: Bio-layer interferometry binding to biotinylated PD-L1; conditions: read-out: dissociation constant KD
T1 construct: biotin (biotinylated); purchased R&D Systems (Minneapolis, Minnesota)
Procedure: (§2) For each experiment, the BLItz machine was fitted with a fresh streptavidin biosensor tip (FortéBio). All tips were solvated in PBS buffer for 15-30 min before the experiments. The peptide was solvated at a concentration of approximately 1 mg/ml. The precise concentration of this stock solution (0.922 mg/ml) was obtained using the Pierce BCA Protein Assay Kit (Thermo Fisher Scientific) and multiple dilutions were made (corresponding to […]). A solution of biotinylated PD-L1 was applied to the biosensor tip during the loading phase of each experiment. PBS buffer (ix) was used for the baseline.

[5] = test system: CT26 murine colon carcinoma cells; assay: MTT viability of CT26 cells without T cells; format: cell-based, mouse
Procedure: Evaluation of the Effect of PD-L1ip3 Peptide or Gene Transduction by Ad-PD-L1ip3 on Murine Colon Carcinoma Cells in Cell Culture The CT26 murine colon carcinoma cells (1,000 cells/well) were seeded into 96-well plate.
After 24 h, these cells were treated directly with PD-L1ip3 in peptide form (0.1-10 μg/ml) or indirectly with the PD-L1ip3 gene by Ad-PD-L1ip3 transduction (10, 20 and 50 MOI). The growth of the cells was evaluated by MTT assay 24-72 h after the treatments as described previously.
To evaluate therapeutic potential and cytotoxicity of the PD-L1ip3 peptide and transduction by Ad-PD-L1ip3, cell viability of CT26 cells was analyzed using MTT assay in the presence of mIFNγ (25 ng/ml), which was used to increase PD-L1 expression in cancer cells. The scrambled sequence version of PD-L1ip3 (PD-L1ip3SC) and the adenovirus carrying the corresponding scrambled sequence gene (Ad-PD-L1ip3SC) were used as negative controls.

[6] = molecular target: T2, Biotinylated human PD-L1 (R&D Systems) (human, UniProt Q9NZQ7 19-239, limits assumed, biotinylated (site not stated)); assay: bio-layer interferometry (BLItz), biotinylated PD-L1 on streptavidin tip, peptide in solution; negative control; scrambled peptide, negative control
T2 construct: Bought reagent, loaded on a streptavidin biosensor tip for bio-layer interferometry
Procedure: as §2
The peptide was synthesized commercially and the dissociation constant was determined by bio-layer interferometry.

[7] = peptide form 0.1-10 μg/ml, mIFNγ 25 ng/ml, 24-72 h, no T cells

T2 sequence (Q9NZQ7 19-239 limits assumed): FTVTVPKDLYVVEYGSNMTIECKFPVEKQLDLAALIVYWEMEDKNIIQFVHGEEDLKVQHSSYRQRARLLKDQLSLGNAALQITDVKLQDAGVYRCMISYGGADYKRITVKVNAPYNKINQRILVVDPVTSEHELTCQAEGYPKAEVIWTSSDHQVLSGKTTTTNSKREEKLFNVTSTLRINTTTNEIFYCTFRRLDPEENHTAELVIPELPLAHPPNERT

| Molecule | cell death in H1299 cells [1] | cell death in H1299 cells [2] | T cell-induced cell death of CT26 cells vs PBS [3] | average tumor volume (CT26 cell tumors; mice pre-treated with CT26 cell lysate 3 times, Ad 100 MOI, peptide 10 mg/kg/day i.p., untreated 729.6±310.3) | change in tumor growth vs untreated CT26 cells (CT26 cell tumors; no lysate pretreatment) | cytotoxicity of antigen-specific CD8+ T cells toward LLC cells [4] | increase in cell death in H1299 cells ([1]; co-cultured with H1299 cell antigen-primed T lymphocytes) | Kd (human PD-L1) | increase in cell death in H1299 cells [2] | viability of CT26 cells (MTT) [5, 7] | viability of CT26 cells (MTT) ([5]; 10 μg/ml, 72 h, not significantly different from PBS) | Kd [6] |
| --- | --- | --- | --- | --- | --- | --- | --- | --- | --- | --- | --- | --- |
| PLDIRDRVHVEKSAAS [PD-L1ip4] | did not alter T cell-dependent death | did not alter T cell-dependent death | – | – | – | – | – | – | – | – | – | – |
| H-GTRLKPLIICVQWPGL-OH [PD-L1ip3] | clear increases of cell death | only minor increases of cell death | markedly increased | 607.5±220.1 mm^3 | nor PD-L1ip3 in peptide form alone showed a statistically significant change in tumor growth | Increased; also recorded: as good as or better than the positive control | 50% | 0.033 ± 0.003 mM | 30% | not affected | – | – |
| H-VLIKIPWLRLPGCGTQ-OH [PD-L1ip3SC, reference compound] | – | only minor increases of cell death | – | – | – | – | – | – | 30% | not affected | slight decrease of cell viability | – |
| B1 | – | – | – | – | – | – | – | – | – | – | – | ~50 mM |
